What all share (experiment): microbe, parasite or virus in culture
What all share (type): cell-based

Experiment [1] deals with rifampin-resistant M. tuberculosis 10545 (rpoB-S′531′L). The settings on record: Mycobacterium tuberculosis; read-out: antibacterial activity rifampin-resistant M. tuberculosis 10545 (rpoB-S′531′L) MIC.
Experiment [2] deals with rifampin-resistant M. tuberculosis 20626 (rpoB-H′526′D). The settings on record: Mycobacterium tuberculosis; read-out: antibacterial activity rifampin-resistant M. tuberculosis 20626 (rpoB-H′526′D) MIC.
The subject of experiment [3] is rifampin-resistant M. tuberculosis 4457 (rpoB-H′526′Y). The settings on record: Mycobacterium tuberculosis; read-out: antibacterial activity rifampin-resistant M. tuberculosis 4457 (rpoB-H′526′Y) MIC.

Converted amounts (≈) assume the structure as drawn.

Consider `CO[C@H]1/C=C/O[C@@]2(C)Oc3c(C)c(O)c4c(O)c(c(/C=N/N5CCN(CCN6CCN(c7ccc(F)cc7NC(=O)C(Cc7ccccc7)NC(=O)c7ccccc7F)CC6)CC5)c(O)c4c3C2=O)NC(=O)/C(C)=C\C=C\[C@H](C)[C@H](O)[C@@H](C)[C@@H](O)[C@@H](C)[C@H](OC(C)=O)[C@@H]1C` (some centres unmarked) [IX-403, Rifamycin SV—(CHN)—IX-402 Conjugate], for which the MIC was 12.5 µg/mL (≈ 9.62 µM) in experiment [1], 25 µg/mL (≈ 19.2 µM) in experiment [2] and 12.5 µg/mL (≈ 9.62 µM) in experiment [3].

Turning to `[2H]C([2H])(c1ccccc1)C(NC(=O)c1ccccc1F)C(=O)Nc1cc(F)ccc1N1CCN(/N=C/C2=C3NC(=O)/C(C)=C\C=C\[C@H](C)[C@H](O)[C@@H](C)[C@@H](O)[C@@H](C)[C@H](OC(C)=O)[C@H](C)[C@@H](OC)/C=C/O[C@@]4(C)Oc5c(C)c(O)c(c(c5C4=O)C2=O)C3=O)CC1` (some centres unmarked) [IX-476a, Rifamycin S—(CHN)—IX-370a Conjugate], the MIC in experiment [1] was 6.25 µg/mL (≈ 5.26 µM); in experiment [3], 3.13 µg/mL (≈ 2.64 µM).

The values above are taken from patent US11447502B2, “Antibacterial agents: dual-targeted RNA polymerase inhibitors” (priority 2018, dated 2022).
